Where a SMILES comes first, the peptide text is derived from it. [ ]: non-standard residue; d: D form. The star is where a group is joined. dPhe(4-NHCONH2) = NC(=O)Nc1ccc(C[C@@H](N)C(=O)O)cc1; Dihydroorotyl(S) = O=C1C[C@@H](C(=O)*)NC(=O)N1; dPhe(4-Cl) = N[C@H](Cc1ccc(Cl)cc1)C(=O)O; Phe(4-NH2) = Nc1ccc(C[C@H](N)C(=O)O)cc1; d2Nal = N[C@H](Cc1ccc2ccccc2c1)C(=O)O; Lys(iPr) = CC(C)NCCCC[C@H](N)C(=O)O; d3Pal = N[C@H](Cc1cccnc1)C(=O)O

This note sets out measurements from patent US20240058464A1 (Fortis Therapeutics, Inc., priority 2021, published 2024).

In this experiment the test system is CD46 expression. The experiment in a line: CD46 expression by RNA-sequencing in unpaired pre-treatment and post-treatment tumor biopsies. The settings on record: for CD46 expression Pre: pre-treatment biopsies. It is filed as in vivo, human.
[1] abbreviates: Breast Cancer, Post minus Pre, unpaired biopsies, log2-transformed counts.
Setting [2] is: Breast Cancer, post- vs pre-treatment unpaired biopsies.
[3] abbreviates: Breast Cancer, post-treatment biopsies, unpaired, RNA-seq log2-transformed normalized counts.
Setting [4] is: Non-Small Cell Lung Cancer, Post minus Pre, unpaired biopsies, log2-transformed counts.
Where [5] appears, read: Non-Small Cell Lung Cancer, post- vs pre-treatment unpaired biopsies.
[6] abbreviates: Non-Small Cell Lung Cancer, post-treatment biopsies, unpaired, RNA-seq log2-transformed normalized counts.
[7] abbreviates: Sarcoma, Post minus Pre, unpaired biopsies, log2-transformed counts.
The mark [8] stands for this setting: Sarcoma, post- vs pre-treatment unpaired biopsies.
The mark [9] stands for this setting: Sarcoma, post-treatment biopsies, unpaired, RNA-seq log2-transformed normalized counts.
Setting [10] is: Non-Small Cell Lung Cancer, post minus pre, unpaired biopsies.
[11] abbreviates: Non-Small Cell Lung Cancer, post vs pre, unpaired biopsies.
[12] abbreviates: Non-Small Cell Lung Cancer, post-treatment biopsies, log2-transformed RNA-seq counts.
Where [13] appears, read: Breast Cancer, post minus pre, unpaired biopsies.
[14] abbreviates: Breast Cancer, post vs pre, unpaired biopsies.
The mark [15] stands for this setting: Breast Cancer, post-treatment biopsies, log2-transformed RNA-seq counts.
Setting [16] is: Endocrine Tumor, Post minus Pre, unpaired biopsies, log2-transformed counts.
[17] abbreviates: Endocrine Tumor, post- vs pre-treatment unpaired biopsies.
The mark [18] stands for this setting: Endocrine Tumor, post-treatment biopsies, unpaired, RNA-seq log2-transformed normalized counts.

As for `C[C@H]1C[C@@H]2[C@H]([C@@H](O)C[C@@]3(C)[C@H]2CC[C@]3(O)C(=O)CO)[C@@]2(C)C=CC(=O)C=C12` [methylprednisolone], the CD46 expression diff under setting [1] is reported as 0.31 and the CD46 expression diff under setting [4] was −0.04. In addition, the “CD46 expression Percentage change” value runs as follows: under setting [2], 5.0%; under setting [5], −0.6%. In addition, the “CD46 expression Post” value reads like this: under setting [3], 6.49; under setting [6], 6.16.
For `CO[C@H]1C[C@@H]2CC[C@@H](C)[C@@](O)(O2)C(=O)C(=O)N2CCCC[C@H]2C(=O)O[C@H]([C@H](C)C[C@@H]2CC[C@@H](OCCO)[C@H](OC)C2)CC(=O)[C@H](C)/C=C(\C)[C@@H](O)[C@@H](OC)C(=O)[C@H](C)C[C@H](C)/C=C/C=C/C=C/1C` [everolimus], the CD46 expression diff under setting [1] is reported as 0.09. Also, the “CD46 expression Percentage change” value under setting [2] is on record as 1.4%. Further, under setting [3], the “CD46 expression Post” value is 6.46.
In the case of `COc1cc2nccc(Oc3ccc(NC(=O)C4(C(=O)Nc5ccc(F)cc5)CC4)cc3)c2cc1OC` [cabozantinib], the CD46 expression diff (Clear Cell Renal Cell Carcinoma, Post minus Pre, unpaired biopsies, log2-transformed counts) was −0.12. Where the note is “Clear Cell Renal Cell Carcinoma, post- vs pre-treatment unpaired biopsies”, the “CD46 expression Percentage change” value was −2.1%. Also, the “CD46 expression Post” value (Clear Cell Renal Cell Carcinoma, post-treatment biopsies, unpaired, RNA-seq log2-transformed normalized counts) is recorded as 5.44.
`C#Cc1cccc(Nc2ncnc3cc(OCCOC)c(OCCOC)cc23)c1` [erlotinib]: the CD46 expression diff under setting [4] is on record as −0.04. For the same compound, the “CD46 expression Percentage change” value under setting [5] is −0.6%. In addition, under setting [6], the “CD46 expression Post” value was 6.23.
On to `COc1cc2c(cc1O)CCN[C@]21CS[C@@H]2c3c(OC(C)=O)c(C)c4c(c3[C@H](COC1=O)N1[C@@H]2[C@H]2c3c(cc(C)c(OC)c3O)C[C@@H]([C@@H]1O)N2C)OCO4` [trabectedin], for which the CD46 expression diff under setting [7] is 0.00. The “CD46 expression Percentage change” value under setting [8] is −0.1%. Further, the “CD46 expression Post” value under setting [9] amounted to 5.23.
Turning to `CC(C)C[C@H](NC(=O)[C@@H](COC(C)(C)C)NC(=O)[C@H](Cc1ccc(O)cc1)NC(=O)[C@H](CO)NC(=O)[C@H](Cc1c[nH]c2ccccc12)NC(=O)[C@H](Cc1cnc[nH]1)NC(=O)[C@@H]1CCC(=O)N1)C(=O)N[C@@H](CCCNC(=N)N)C(=O)N1CCC[C@H]1C(=O)NNC(N)=O` [goserelin], the CD46 expression diff under setting [1] is given as 0.00. Also, under setting [2], the “CD46 expression Percentage change” value is on record as −0.1%. Further, the “CD46 expression Post” value under setting [3] is 6.38.
Turning to `C[C@@H](Oc1cc(-c2cnn(C3CCNCC3)c2)cnc1N)c1c(Cl)ccc(F)c1Cl` [crizotinib], the CD46 expression diff under setting [4] is on record as 0.16. In addition, under setting [5], the “CD46 expression Percentage change” value came to 2.7%.
For `CNC(=O)c1ccccc1Sc1ccc2c(/C=C/c3ccccn3)n[nH]c2c1` [axitinib], the CD46 expression diff (Clear Cell Renal Cell Carcinoma, post minus pre, unpaired biopsies) is on record as −0.29. Also, the “CD46 expression Percentage change” value (Clear Cell Renal Cell Carcinoma, post vs pre, unpaired biopsies) is on record as −5.1%. Besides, the “CD46 expression Post” value (Clear Cell Renal Cell Carcinoma, post-treatment biopsies, log2-transformed RNA-seq counts) stood at 5.43.
For `COc1cc2nccc(Oc3ccc(NC(=O)NC4CC4)c(Cl)c3)c2cc1C(N)=O` [lenvatinib], the CD46 expression diff (Thyroid Cancer, Post minus Pre, unpaired biopsies, log2-transformed counts) is recorded as −0.02. Moreover, where the note is “Thyroid Cancer, post- vs pre-treatment unpaired biopsies”, the “CD46 expression Percentage change” value is −0.4%. Moreover, the “CD46 expression Post” value (Thyroid Cancer, post-treatment biopsies, unpaired, RNA-seq log2-transformed normalized counts) stood at 5.82.
For `CC(=O)N[C@H](Cc1ccc2ccccc2c1)C(=O)N[C@H](Cc1ccc(Cl)cc1)C(=O)N[C@H](Cc1cccnc1)C(=O)N[C@@H](CO)C(=O)N[C@@H](Cc1ccc(NC(=O)[C@@H]2CC(=O)NC(=O)N2)cc1)C(=O)N[C@H](Cc1ccc(NC(N)=O)cc1)C(=O)N[C@@H](CC(C)C)C(=O)N[C@@H](CCCCNC(C)C)C(=O)N1CCC[C@H]1C(=O)N[C@H](C)C(N)=O` [degarelix] (Ac-[d2Nal][dPhe(4-Cl)][d3Pal]S[Phe(4-NH2)](Dihydroorotyl(S))[dPhe(4-NHCONH2)]L[Lys(iPr)]P[dA]-NH2), the CD46 expression diff (Prostate Cancer, post minus pre, unpaired biopsies) is given as −0.29. In addition, the “CD46 expression Percentage change” value (Prostate Cancer, post vs pre, unpaired biopsies) is listed as −4.6%. Further, the “CD46 expression Post” value (Prostate Cancer, post-treatment biopsies, log2-transformed RNA-seq counts) was 5.94. For the same compound, for the setting “Prostate Cancer, log2-transformed RNA-seq counts”, the “CD46 expression Pre” value amounted to 6.23.
On to ado-trastuzumab emtansine, for which, where the note is “in vivo”, the “CD46 expression Percentage change” value was −0.8%, the “CD46 expression Post” value worked out at 6.20 and the CD46 expression diff is reported as −0.05.
As for `CC[C@]1(O)C[C@H]2CN(CCc3c([nH]c4ccccc34)[C@@](C(=O)OC)(c3cc4c(cc3OC)N(C=O)[C@H]3[C@@](O)(C(=O)OC)[C@H](OC(C)=O)[C@]5(CC)C=CCN6CC[C@]43[C@@H]65)C2)C1` [vincristine], the CD46 expression diff under setting [7] is listed as −0.03. Also, the “CD46 expression Percentage change” value under setting [8] is −0.5%. Moreover, the “CD46 expression Post” value under setting [9] is 5.09.
As for ramucirumab, under setting [10], the CD46 expression diff is −0.17. Under setting [11], the “CD46 expression Percentage change” value is on record as −2.8%. Further, the “CD46 expression Post” value under setting [12] amounted to 6.13. The “CD46 expression Pre” value (Non-Small Cell Lung Cancer, log2-transformed RNA-seq counts) amounted to 6.30.
For `CCC1=C[C@@H]2CN(C1)Cc1c([nH]c3ccccc13)[C@@](C(=O)OC)(c1cc3c(cc1OC)N(C)[C@H]1[C@@](O)(C(=O)OC)[C@H](OC(C)=O)[C@]4(CC)C=CCN5CC[C@]31[C@@H]54)C2` [vinorelbine], the CD46 expression diff by setting is: under setting [1], −0.13; under setting [10], −0.20. Further, the “CD46 expression Percentage change” value runs as follows: under setting [2], −2.0%; under setting [11], −3.3%. Moreover, the “CD46 expression Post” value reads like this: under setting [3], 6.24; under setting [12], 5.98.
In the case of `CCN1CCN(Cc2ccc(Nc3ncc(F)c(-c4cc(F)c5nc(C)n(C(C)C)c5c4)n3)nc2)CC1` [abemaciclib], the CD46 expression diff under setting [13] is −0.15. Further, the “CD46 expression Percentage change” value under setting [14] is listed as −2.4%. Moreover, the “CD46 expression Post” value under setting [15] turned out to be 6.33.
On to `C[C@@H](O)[C@@H]1NC(=O)[C@H](CCCCN)NC(=O)[C@@H](Cc2c[nH]c3ccccc23)NC(=O)[C@H](Cc2ccccc2)NC(=O)[C@@H](NC(=O)[C@H](N)Cc2ccccc2)CSSC[C@@H](C(=O)N[C@H](CO)[C@@H](C)O)NC1=O` [octreotide], for which the CD46 expression diff under setting [16] is reported as −0.05. Further, the “CD46 expression Percentage change” value under setting [17] was −0.9%. Under setting [18], the “CD46 expression Post” value is 5.59.
Turning to `CCc1cc2c(cc1N1CCC(N3CCOCC3)CC1)C(C)(C)c1[nH]c3cc(C#N)ccc3c1C2=O` [alectinib], the CD46 expression diff under setting [4] is reported as −0.03. Further, the “CD46 expression Percentage change” value under setting [5] was −0.5%. Moreover, the “CD46 expression Post” value under setting [6] came to 6.18.
Turning to `O=S(=O)(O)CCS` [mesna], under “Sarcoma, post minus pre, unpaired biopsies”, the CD46 expression diff is reported as −0.16. Further, the “CD46 expression Percentage change” value (Sarcoma, post vs pre, unpaired biopsies) is −3.2%. Also, where the note is “Sarcoma, post-treatment biopsies, log2-transformed RNA-seq counts”, the “CD46 expression Post” value was 4.88.
Regarding `CN(C)C(=O)c1cc2cnc(Nc3ccc(N4CCNCC4)cn3)nc2n1C1CCCC1` [ribociclib], the CD46 expression diff under setting [13] was −0.17. Besides, the “CD46 expression Percentage change” value under setting [14] is −2.6%. For the same compound, under setting [15], the “CD46 expression Post” value is on record as 6.30.
Regarding `O=P(O)(O)C(O)(Cn1ccnc1)P(=O)(O)O` [zoledronic acid], the CD46 expression diff under setting [1] came out at 0.41. For the same compound, under setting [2], the “CD46 expression Percentage change” value was found to be 6.4%. Besides, the “CD46 expression Post” value under setting [3] was determined as 6.78.
Turning to pertuzumab, the CD46 expression diff under setting [1] is on record as −0.08. Moreover, the “CD46 expression Percentage change” value under setting [2] is on record as −1.3%. Besides, the “CD46 expression Post” value under setting [3] turned out to be 6.25.
As to aflibercept, the CD46 expression diff (Colorectal Cancer, Post minus Pre, unpaired biopsies, log2-transformed counts) is on record as 0.21. Further, the “CD46 expression Percentage change” value (Colorectal Cancer, post- vs pre-treatment unpaired biopsies) is on record as 3.3%. The “CD46 expression Post” value (Colorectal Cancer, post-treatment biopsies, unpaired, RNA-seq log2-transformed normalized counts) was 6.58.
As to `COc1cc([C@@H]2c3cc4c(cc3[C@@H](O[C@@H]3O[C@@H]5CO[C@@H](C)O[C@H]5[C@H](O)[C@H]3O)[C@H]3COC(=O)[C@H]23)OCO4)cc(OC)c1O` [etoposide], the CD46 expression diff runs as follows: under setting [16], 0.11; under setting [4], 0.10; under setting [7], 0.30. The “CD46 expression Percentage change” value under setting [17] turned out to be 2.0%, the “CD46 expression Percentage change” value under setting [5] is 1.7% and the “CD46 expression Percentage change” value under setting [8] came to 6.2%. For the same compound, the “CD46 expression Post” value amounted to 5.79 under setting [18], 5.98 under setting [6] and 5.13 under setting [9].
On to `CN(C)C/C=C/C(=O)Nc1cc2c(Nc3ccc(F)c(Cl)c3)ncnc2cc1O[C@H]1CCOC1` [afatinib], for which the CD46 expression diff under setting [4] is reported as 0.11. Further, under setting [5], the “CD46 expression Percentage change” value was 1.7%. For the same compound, the “CD46 expression Post” value under setting [6] was found to be 6.43.
